Reference: patent publication US4690926A, “Boxazomycin A and B, new antibiotics containing benzoxazole nucleus” (Bristol-Myers Company, priority 1986, dated 1987)
Converted amounts (≈) assume the structure as drawn.

system: S. epidermidis A22547; type: cell-based; conditions: Staphylococcus epidermidis, Nutrient agar (Eiken), kanamycin-resistant

SMILES | MIC [µg/mL]
Cc1cc(O)c(C(N)=O)c2nc(-c3nc(CO)ncc3O)oc12 [Boxazomycin A] | 0.4 (≈ 1.26 µM)
Cc1ncc(O)c(-c2nc3c(C(N)=O)c(O)cc(C)c3o2)n1 [Boxazomycin B] | 0.2 (≈ 0.666 µM)
NC[C@H]1O[C@H](O[C@H]2[C@H](O)[C@@H](O[C@H]3O[C@H](CO)[C@@H](O)[C@H](N)[C@H]3O)[C@H](N)C[C@@H]2N)[C@H](O)[C@@H](O)[C@@H]1O [Kanamycin, kanamycin, reference compound] | 25 (≈ 51.6 µM)
